In US20230060425A1, “FUSED BICYCLIC HETEROCYCLE DERIVATIVES AS PESTICIDES” (Bayer Aktiengesellschaft, priority 2019, published 2023):
Like-named read-outs stand apart in the source and are kept apart here.

Assays:
Assay type in all cases: in vivo
Myzus persicae [1] = assay: Myzus persicae spray test (MYZUPE), comparative; details: 120 h, 5 dat, read-out: % Efficacy
Procedure: Myzus persicae—Spray Test (MYZUPE)
(§1) Solvent: • 78.0 parts by weight of acetone • 1.5 parts by weight of dimethylformamide
(§2) Emulsifier: alkylaryl polyglycol ether
(§3) To produce a suitable active compound preparation, 1 part by weight of active compound is dissolved using the stated parts by weight of solvent and made up with water containing an emulsifier concentration of 1000 ppm until the desired concentration is attained. To produce further test concentrations, the formulation is diluted with emulsifier-containing water.
Discs of Chinese cabbage leaves (Brassica pekinensis) infested by all stages of the green peach aphid (Myzus persicae) are sprayed with an active compound preparation of the desired concentration.
After the desired period of time, the efficacy in % is determined. 100% means that all the aphids have been killed; 0% means that no aphids have been killed.

Spodoptera frugiperda = Spodoptera frugiperda spray test (SPODFR), comparative; details: 168 h, 0.8 g of ai/ha, 7 dat, read-out: % Efficacy
Procedure: Spodoptera frugiperda—Spray Test (SPODFR)
as §1, §2, §3
Leaf discs of maize (Zea mays) are sprayed with an active compound formulation of the desired concentration and, after drying, populated with caterpillars of the armyworm (Spodoptera frugiperda).
After the desired period of time, the efficacy in % is determined. 100% means that all the caterpillars have been killed; 0% means that no caterpillar has been killed.

Ctenocephalides felis = Ctenocephalides felis in vitro contact test with adult cat fleas; details: application rate 5 μg/cm^2 (=500 g/ha); after 48 h; fleas dead or moribund
Procedure: Ctenocephalides felis—In Vitro Contact Tests with Adult Cat Fleas
For the coating of the test tubes, 9 mg of active compound are first dissolved in 1 ml of acetone p.a. and then diluted to the desired concentration with acetone p.a. 250 μl of the solution are distributed homogeneously on the inner walls and the base of a 25 ml glass tube by turning and rocking on an orbital shaker (rocking rotation at 30 rpm for 2 h). With 900 ppm of active compound solution and internal surface area 44.7 cm^2, given homogeneous distribution, an area-based dose of 5 μg/cm^2 is achieved.
After the solvent has evaporated off, the tubes are populated with 5-10 adult cat fleas (Ctenocephalides felis), sealed with a perforated plastic lid and incubated in a horizontal position at room temperature and ambient humidity. After 48 h, efficacy is determined. To this end, the tubes are stood upright and the fleas are knocked to the base of the tube. Fleas which remain motionless at the base or move in an uncoordinated manner are considered to be dead or moribund.
100% efficacy means that all the fleas were dead or moribund. 0% efficacy means that no fleas were harmed.

Myzus persicae [2] = assay: Myzus persicae spray test; details: foliar, 120 h, application rate 100 g/ha, Chinese cabbage leaf discs, after 5 days, read-out: efficacy
In short: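 Chinese cabbage leaf discs infested with all stages of Myzus persicae were sprayed with compound in acetone/DMF, diluted in water containing 1000 ppm emulsifier. Efficacy in % assessed after 5 days: 100% all aphids killed, 0% none killed.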

Heliothis armigera = Heliothis armigera test (HELIAR S); details: Helicoverpa armigera, 6 dai, read-out: % Efficacy
Procedure: Heliothis armigera Test (HELIAR S)
(§4) Solvent: 14 parts by weight of dimethylformamide
Emulsifier: 2 parts by weight of alkylaryl polyglycol ether
To produce a suitable active compound formulation, 1 part by weight of active compound is dissolved with the stated parts by weight of solvent and emulsifier and made up to the desired concentration with water. To produce further test concentrations, water is used for dilution. In the event that addition of ammonium salts or/and penetrants (rapeseed oil methyl ester) is required, these are each pipetted in at a concentration of 1000 ppm after the finished formulation solution has been diluted.
Cotton plants (Gossypium hirsutum) are sprayed with an active compound formulation of the desired concentration and, in each case after 12 and 19 days, populated with 5 caterpillars (L2) of the cotton bollworm (Heliothis armigera).
The kill is determined 6 days after the infection. 100% means that all the caterpillars have been killed and 0% means that none of the caterpillars have been killed.

Myzus persicae [3] = assay: Myzus persicae oral test; details: 120 h, application rate 4 ppm, after 5 days, read-out: efficacy
In short: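 Aphid feeding test: compound dissolved in acetone, diluted with water and mixed with IPL41 insect medium plus sugar, offered through parafilm to a mixed population of green peach aphids. Mortality scored after 5 days as % efficacy (100% = all aphids dead, 0% = none dead).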

Aphis gossypii = Aphis gossypii spray test (APHIGO S); details: 144 h, 6 dat, read-out: % Efficacy
Procedure: Aphis gossypii—Spray Test (APHIGO S)
as §4, §2
as §3, with “water. If the addition of ammonium salts or/and penetrants is required, these are each added in a concentration of 1000 ppm to the formulation solution.” for “water.”
Cotton plants (Gossypium hirsutum) heavily infested by the cotton aphid (Aphis gossypii) are sprayed with an active compound formulation of the desired concentration.
After the desired time, the kill in % is determined. 100% means that all the aphids have been killed; 0% means that no aphids have been killed.

CCS(=O)(=O)c1c(-c2nc3cc(C(F)(F)F)cnc3n2C)ncc2cc(Br)ccc12 [Example I-037, 7-Bromo-4-ethylsulfonyl-3-[3-methyl-6-(trifluoromethyl)imidazo[4,5-b]pyridin-2-yl]isoquinoline]
Emax at 4 g/ha (Myzus persicae [1]; 4 g of ai/ha): 70% | Emax at 20 g/ha (Myzus persicae [1]; 20 g of ai/ha): 90% | Emax at 0.8 g/ha (Spodoptera frugiperda): 100% | efficacy (Ctenocephalides felis): 100% | pest or weed control at 100 g/ha (Myzus persicae [2]): 100% | Emax at 0.16 ppm (Heliothis armigera; 288 h, infection 12 dat): 80% | Emax at 0.16 ppm (Heliothis armigera; 456 h, infection 19 dat): 70% | pest or weed control at 4 ppm (Myzus persicae [3]): 100% | Emax at 4 ppm (Aphis gossypii): 65%
